Measured values: patent US6534070B1, “Composition with azelaic acid” (Schering Aktiengesellschaft, priority 1997, dated 2003)

Assay type: in vitro ADME, hairless mice (MF1 hr/hr Ola/Hsd)
Conditions: MF1 hr/hr Ola/Hsd (hairless), mouse, 24 h
Text: The percutaneous resorption of azelaic acid was examined from hydrogel formulations according to the invention in comparison to Skinoren^(R) cream. The purpose of the study was to describe the bioavailability of azelaic acid in the skin, the penetration of azelaic acid through the skin and the dermal metabolism of azelaic acid. In this respect, various preparations that contain ^14C-labeled azelaic acid were applied in the in vitro model of the FRANZ diffusion chamber on the intact complete skin of hairless mice (MF1 hr/hr Ola/Hsd; supplier: Winkelmann, Germany). An amount of 10 to 15 mg of the following compositions was applied to a skin area of 2 cm^2:
The time behavior of the ^14C-azelaic acid was measured in the acceptor medium (Hepes Hanks Balanced Salt Solution: HHBSS), which flows along under the skin, at two-hour intervals over a period of 24 hours. In addition, at the end of each experiment, the radioactivity on the skin surface, in the stratum corneum and in the remaining skin was determined. […]
The ^14C-azelaic acid found in the skin at the end of the experiment was metabolized only to a proportion of 3 to 11%. Therefore, the data on the radioactivity in the skin can virtually be equated to the concentration of unchanged azelaic acid.

For `O=C(O)CCCCCCCC(=O)O` [^14C-azelaic acid, azelaic acid], the “proportion of 14C-azelaic acid found in the skin that was metabolized” value was 3 to 11%.
